Assay [1] deals with K. pneumoniae (ATCC 13383). Briefly: MIC against K. pneumoniae. It is filed as cell-based. The note with it: Klebsiella pneumoniae, ATCC13383; Gram −; 16 h, 37° C. The protocol: (§1) Minimum Inhibitory Concentrations (MICs) Against Bacteria.
(§2) The antimicrobial activity of the compounds was tested on the following six bacteria strains: K. pneumoniae (ATCC 13383), P. aeruginosa (ATCC27853), E. coli (ATCC 25922), vancomycin-resistant Enterococcus faecalis(ATCC 700802), Methicillin-resistant S. aureus (MRSA, ATCC 33591), Methicillin-resistant S. epidermidis (MRSE, RP62A). The procedures were followed as reported previously (Hancock et al., Immunobiology 2006, 211, 315-322). Briefly, a single colony of each bacterium was inoculated in 3 mL TSB medium and incubated overnight at 37° C. Then the bacteria culture was diluted at 1:100 and the bacteria were allowed to grow to mid-logarithmic phase. Next, 50 μL of 2-fold serial dilutions of compounds (0.1-25 μg/mL) were added the 96-well plate containing aliquots of 50 μL of bacteria suspension (1×10^6 CFU/mL) in each well. The mixture was incubated at 37° C. for 16 h, and their absorption at 600 nm wavelength was read on a Biotek Synergy HT microtiter plate reader. […] The experiments were repeated at least three times with duplicates each time. HC50 means the concentration causing 50% hemolysis.

For assay [2], the system named is vancomycin-resistant Enterococcus faecalis (ATCC 700802). The experiment in a line: MIC against VRE. It is filed as cell-based. The note with it: Gram +; 16 h, 37° C. On the procedure:
as §1, §2

The next assay has as its system MRSA biofilm. The experiment in a line: Biofilm formation inhibition (crystal violet), MRSA. It is filed as cell-based, S. aureus. On the procedure:
(§3) Bacteria in biofilms are known to tolerate antibiotic treatment and are thus more difficult to eradicate than planktonic cells. Biofilms formed by MRSA and E. coli have frustrated the treatment of persistent bacterial infections. Compound 12 was evaluated for its ability to inhibit biofilm formation of MRSA and E. coli. Overnight grown bacteria were inoculated into fresh 10% of MHII broth at a ratio of 1:100. 100 μL of inoculated culture was incubated with appropriated amounts of compound 12 in wells of 96-well plate. The plate was incubated at 37° C. for overnight. Optical density of each well was recorded at the wavelength of 600 nm and then the biofilm biomass was recorded by the crystal violet method. Biofilm biomass was presented as CV OD/OD of growth. Relative biofilm biomass values were normalized by the biomass value of control (no addition of compound). Experiments were conducted in triplicate and the data were presented as mean±STDEV.

Another assay concerns E. coli biofilm. Briefly: Biofilm formation inhibition (crystal violet), E. coli. The note with it: Escherichia coli. It is filed as cell-based. The protocol:
as §3

For a further assay, the system named is S. aureus ATCC 33591. Briefly: Thigh burden infection model in neutropenic mice. It is filed as in vivo, CD-1 female mice. The note with it: 5 mg/kg i.v. at 1 and 7 h after infection, thighs harvested at 25 h. The protocol: Neutropenic mice (n=4 per group) were inoculated in the posterior thigh muscles with S. aureus ATCC 33591 at 1×10^6 CFU per thigh and then treated with compounds 11 and 12 (5 mg/kg per dose) by i.v. bolus injection in the tail vein at 1 and 7 h after infection.
A thigh burden model was employed to evaluate the in vivo anti-infective activity of compounds 11 and 12, in which the thigh muscle of neutropenic mice was inoculated with S. aureus, followed by intravenous (i.v.) administration of corresponding compounds. All protocols and methods associated with animal experiments were approved by University of South Florida (USF) Institutional Animal Care and Use Committee. The in vivo experiment on the mouse model of the thigh burden infection with MRSA was conducted adapted from previously reported protocol. The CD-1 female mice which were 6 to 8 weeks old and around 25 g in weights were used for the study. Neutropenic Mice were induced by injecting cyclophosphamide (150 mg/kg) intraperitoneally twice at 4 and 1 days before bacterial inoculation. One MRSA colony from tryptic soy agar (TSA) cultures was allowed to grow in tryptic soy broth (TSB) overnight at 37° C., then 100 μL culture was withdrawn and diluted with TSB to a total volume of 4 mL, which was subsequently incubated at 37° C. for another 6 h. […] The formed colonies were counted to calculate CFU per thigh.

As to `CCCCCCN1C(=N)N(CC(=O)Nc2cccc(NC(=O)CN3C[C@H](Cc4ccccc4)N(CCCCCC)C3=N)c2)C[C@@H]1Cc1ccccc1` [Compound 12], the minimal inhibitory concentration (MIC) in assay [1] and in assay [2] was 0.75 µg/mL each time. Besides, the “inhibition of biofilm formation” value with MRSA biofilm (0.39 μg/mL) is on record as “completely eradicated”. The inhibition at 0.19 µg/mL came out at 85% in the assay with MRSA biofilm (Staphylococcus aureus, 0.19 μg/mL) and 38% in the assay with E. coli biofilm (0.19 μg/mL). Besides, the inhibition at 0.39 µg/mL in the assay with E. coli biofilm (0.39 μg/mL) is ~90%. For the same compound, the “decrease in colony-forming unit (CFU) per thigh” value in the assay on S. aureus ATCC 33591 is listed as 5 log10 CFU.

By MIC is commonly meant the lowest concentration that inhibits growth of the organism. The inhibition is how much of the control response was suppressed. Lower therefore signals a weak effect.

Source of the values: patent publication US10144713B1, “Bis-cyclic guanidines as antibacterial agents” (UNIVERSITY OF SOUTH FLORIDA, priority 2017, dated 2018).
